# According to patent publication US20250144067A1, “PERSONALIZED STARVATION THERAPY FOR CANCER” (Faeth Therapeutics, Inc., priority 2021, published 2025):
# Where a name gives a salt, the structure may show the parent alone. Read-outs that look alike come from different tables or passages of the source.
# Legend:
# [1] = system: NCI-H292 lung cancer cells; assay: FDA drug screening, complete media vs cholesterol-free media without statin (TABLE 1); format: cell-based, human
# [2] = system: NCI-H292 lung cancer cells; assay: FDA drug screening, complete media vs cholesterol-free media with simvastatin (TABLE 2); format: cell-based, human
# [3] = NCI-H292 cells, cholesterol-free media without statin
# [4] = NCI-H292 cells, cholesterol-free media with simvastatin 0.04 μM, FDA drug library screen (TABLE 2)
# [5] = NCI-H292 cells, complete media, FDA drug library screen (TABLE 2)
# [6] = complete media minus cholesterol-free media + simvastatin (0.04 μM), >0 enhanced anti-cancer activity, about 0 neutral, <0 antagonist
# [7] = Complete minus Cholesterol-free, greater than 0 enhanced anti-cancer activity, about 0 neutral, below 0 antagonist
# [8] = NCI-H292 cells, FDA drug library screen, cholesterol-free media without statin
# [9] = NCI-H292 cells, FDA drug library screen, complete media
# [10] = NCI-H292 cells, FDA drug library screen, cholesterol-free media with simvastatin 0.04 μM
# [11] = complete media vs cholesterol-free media + simvastatin (0.04 μM), >0 enhanced anti-cancer activity, about 0 neutral, <0 antagonist
# [12] = NCI-H292 cells, cholesterol-free media with simvastatin 0.04 μM, cell growth value in FDA drug screen
# [13] = NCI-H292 cells, complete media, cell growth value in FDA drug screen
# [14] = complete media minus cholesterol-free media + simvastatin, >0 enhanced anti-cancer activity, about 0 neutral, <0 antagonist
# [15] = Complete minus Cholesterol-free, greater than 0 enhanced anti-cancer activity, about 0 neutral, below 0 antagonists
# [16] = NCI-H292 cells in cholesterol-free media without statin
# [17] = NCI-H292 cells in complete media
# [18] = NCI-H292 cells, FDA library drug in cholesterol-free media with simvastatin 0.04 μM
# [19] = NCI-H292 cells, FDA library drug in complete media
# [20] = Complete minus Cholesterol-free, >0 enhanced anti-cancer activity, about 0 neutral, <0 antagonist
# [21] = NCI-H292 cells, cholesterol-free media without statin, FDA drug library screen
# [22] = NCI-H292 cells, complete media, FDA drug library screen
# [23] = complete vs cholesterol-free media, >0 enhanced anti-cancer activity, about 0 neutral, <0 antagonist
# [24] = NCI-H292 cells, drug in cholesterol-free media with simvastatin 0.04 μM
# [25] = NCI-H292 cells, drug in complete media
smiles,measurement,setting,value
CC(C)/N=c1\cc2n(-c3ccc(Cl)cc3)c3ccccc3nc-2cc1Nc1ccc(Cl)cc1 [Clofazimine],Cholesterol-free,[1]; [3],0.8398
same,Complete,"[1]; NCI-H292 cells, complete media",0.4066
same,Difference,"[1]; complete vs cholesterol-free media, greater than 0 enhanced anti-cancer activity, about 0 neutral, below 0 antagonists",−0.43
same,Cholesterol-free media + simvastatin (0.04 μM),[2]; [4],0.9946
same,Complete Media,[2]; [5],0.9365
same,Difference,[2]; [6],−0.06
CCOC(=O)C(C)(C)Oc1ccc(Cl)cc1 [Clofibrate],Difference,[1]; [7],−0.12
same,Cholesterol-free,[1]; [8],1.138
same,Complete,[1]; [9],1.018
same,Cholesterol-free media + simvastatin (0.04 μM),[2]; [10],1.786
same,Complete Media,[2]; [9],1.654
same,Difference,[2]; [11],−0.13
CC(C)(Oc1ccc(Cl)cc1)C(=O)O [Clofibric acid],Difference,[1]; [7],−0.18
same,Cholesterol-free,[1]; [8],0.9932
same,Complete,[1]; [9],0.8121
same,Cholesterol-free media + simvastatin (0.04 μM),[2]; [12],1.015
same,Complete Media,[2]; [13],1.071
same,Difference,[2]; [14],0.06
CC(C)(C)CC(C)(C)c1ccc(O)c(Cc2ccc(Cl)cc2Cl)c1 [Clofoctol],Difference,[1]; [15],−0.85
same,Cholesterol-free,[1]; [16],1.815
same,Complete,[1]; [17],0.9672
same,Cholesterol-free media + simvastatin (0.04 μM),[2]; [10],1.057
same,Complete Media,[2]; [9],1.232
same,Difference,[2]; [14],0.17
CN(C)CCCN1c2ccccc2CCc2ccc(Cl)cc21 [Clomipramine (hydrochloride)],Difference,[1]; [15],−0.54
same,Cholesterol-free,[1]; [16],1.47
same,Complete,[1]; [17],0.9281
same,Cholesterol-free media + simvastatin (0.04 μM),[2]; [12],0.9105
same,Complete Media,[2]; [13],1.028
same,Difference,[2]; [14],0.12
Clc1cccc(Cl)c1N=C1NCCN1 [Clonidine (hydrochloride)],Difference,[1]; [7],−0.12
same,Cholesterol-free,[1]; [8],0.9351
same,Complete,[1]; [9],0.8162
same,Cholesterol-free media + simvastatin (0.04 μM),[2]; [10],1.083
same,Complete Media,[2]; [9],0.9532
same,Difference,[2]; [11],−0.13
Clc1cccc(Cl)c1N=C1NCCN1 [Clonidine],Difference,[1]; [15],−0.63
same,Cholesterol-free,[1]; [16],1.46
same,Complete,[1]; [17],0.8249
same,Cholesterol-free media + simvastatin (0.04 μM),[2]; [18],1.26
same,Complete Media,[2]; [19],0.9157
same,Difference,[2]; [11],−0.34
Clc1ccc(C(OCCN2CCCCC2)c2ccccc2)cc1 (stereo not drawn) [Cloperastine (hydrochloride)],Difference,[1]; [20],−0.28
same,Cholesterol-free,[1]; [3],1.087
same,Complete,"[1]; NCI-H292 cells, complete media",0.8022
same,Cholesterol-free media + simvastatin (0.04 μM),[2]; [10],1.648
same,Complete Media,[2]; [9],1.547
same,Difference,[2]; [11],−0.10
COC(=O)[C@H](c1ccccc1Cl)N1CCc2sccc2C1 [Clopidogrel],Difference,[1]; [20],−0.02
same,Cholesterol-free,[1]; [21],0.9805
same,Complete,[1]; [22],0.958
same,Cholesterol-free media + simvastatin (0.04 μM),[2]; [4],1.038
same,Complete Media,[2]; [5],0.969
same,Difference,[2]; [6],−0.07
CC(C)NCC(O)c1ccccc1Cl (stereo not drawn) [Clorprenaline hydrochloride],Cholesterol-free,[1]; [21],0.6182
same,Complete,[1]; [22],1.062
same,Difference,[1]; [23],0.44
same,Cholesterol-free media + simvastatin (0.04 μM),[2]; [10],0.6832
same,Complete Media,[2]; [9],0.8199
same,Difference,[2]; [14],0.14
Clc1ccccc1C(c1ccccc1)(c1ccccc1)n1ccnc1 [Clotrimazole],Difference,[1]; [15],−0.77
same,Cholesterol-free,[1]; [16],1.485
same,Complete,[1]; [17],0.7188
same,Cholesterol-free media + simvastatin (0.04 μM),[2]; [10],0.4166
same,Complete Media,[2]; [9],0.8582
same,Difference,[2]; [14],0.44
Cc1onc(-c2ccccc2Cl)c1C(=O)N[C@@H]1C(=O)N2[C@@H]1SC(C)(C)[C@@H]2C(=O)O [Cloxacillin (sodium monohydrate)],Difference,[1]; [20],−0.19
same,Cholesterol-free,[1]; [3],1.114
same,Complete,"[1]; NCI-H292 cells, complete media",0.9266
same,Cholesterol-free media + simvastatin (0.04 μM),[2]; [12],1.045
same,Complete Media,[2]; [13],1.18
same,Difference,[2]; [14],0.13
CN1CCN(C2=Nc3cc(Cl)ccc3Nc3ccccc32)CC1 [Clozapine],Difference,[1]; [20],−0.23
same,Cholesterol-free,[1]; [3],1.346
same,Complete,"[1]; NCI-H292 cells, complete media",1.114
same,Cholesterol-free media + simvastatin (0.04 μM),[2]; [10],0.8452
same,Complete Media,[2]; [9],1.094
same,Difference,[2]; [14],0.25
O=C(c1ccc(F)c(F)c1Nc1ccc(I)cc1F)N1CC(O)([C@@H]2CCCCN2)C1 [Cobimetinib],Difference,[1]; [20],−0.06
same,Cholesterol-free,[1]; [21],0.2958
same,Complete,[1]; [22],0.2361
same,Cholesterol-free media + simvastatin (0.04 μM),[2]; [4],0.5825
same,Complete Media,[2]; [5],0.5258
same,Difference,[2]; [6],−0.06
COc1cc2c(c(OC)c1OC)-c1ccc(OC)c(=O)cc1[C@@H](NC(C)=O)CC2 [Colchicine],Cholesterol-free,[1],0.1135
same,Complete,[1],0.07073
same,Difference,[1],−0.04
same,Cholesterol-free media + simvastatin (0.04 μM),[2],0.1971
same,Complete Media,[2],0.2205
same,Difference,[2],0.02
Cc1nc2c([nH]1)-c1ccccc1N(C(=O)c1ccc(NC(=O)c3ccccc3-c3ccccc3)cc1)CC2 [Conivaptan (hydrochloride)],Difference,[1]; [15],−0.65
same,Cholesterol-free,[1]; [16],1.641
same,Complete,[1]; [17],0.989
same,Cholesterol-free media + simvastatin (0.04 μM),[2]; [10],1.147
same,Complete Media,[2]; [9],1.002
same,Difference,[2]; [11],−0.15
COc1c(OCCCN2CCOCC2)ccc2c1N=C(NC(=O)c1cnc(N)nc1)N1CCN=C21 [Copanlisib (dihydrochloride)],Difference,[1]; [20],0.02
same,Cholesterol-free,[1]; [21],0.07316
same,Complete,[1]; [22],0.09563
same,Cholesterol-free media + simvastatin (0.04 μM),[2]; [12],0.2902
same,Complete Media,[2]; [13],0.3694
same,Difference,[2]; [14],0.08
CC(=O)OCC(=O)[C@@]1(O)CC[C@H]2[C@@H]3CCC4=CC(=O)CC[C@]4(C)[C@H]3C(=O)C[C@@]21C [Cortisone acetate],Difference,[1]; [15],−1.35
same,Cholesterol-free,[1]; [16],2.332
same,Complete,[1]; [17],0.9837
same,Cholesterol-free media + simvastatin (0.04 μM),[2]; [12],1.003
same,Complete Media,[2]; [13],1.101
same,Difference,[2]; [14],0.10
C[C@]12CCC(=O)C=C1CC[C@@H]1[C@@H]2C(=O)C[C@@]2(C)[C@H]1CC[C@]2(O)C(=O)CO [Cortisone],Difference,[1]; [20],−0.30
same,Cholesterol-free,[1]; [3],1.216
same,Complete,"[1]; NCI-H292 cells, complete media",0.9117
same,Cholesterol-free media + simvastatin (0.04 μM),[2]; [10],1.033
same,Complete Media,[2]; [9],0.8818
same,Difference,[2]; [11],−0.15
O=c1ccc2ccccc2o1 [Coumarin],Cholesterol-free,[1]; [21],0.9742
same,Complete,[1]; [22],1.716
same,Difference,[1]; [23],0.74
same,Cholesterol-free media + simvastatin (0.04 μM),[2]; [4],0.8441
same,Complete Media,[2]; [5],0.7948
same,Difference,[2]; [6],−0.05
CN(CC(=O)O)C(=N)N [Creatine],Difference,[1]; [15],−0.96
same,Cholesterol-free,[1]; [16],2.303
same,Complete,[1]; [17],1.348
same,Cholesterol-free media + simvastatin (0.04 μM),[2]; [10],1.925
same,Complete Media,[2]; [9],1.831
same,Difference,[2]; [11],−0.09
N#Cc1ccc(Oc2ccc3c(c2)COB3O)cc1 [Crisaborole],Difference,[1]; [7],−0.14
same,Cholesterol-free,[1]; [8],1.199
same,Complete,[1]; [9],1.059
same,Cholesterol-free media + simvastatin (0.04 μM),[2]; [18],1.417
same,Complete Media,[2]; [19],0.9479
same,Difference,[2]; [11],−0.47
C[C@@H](Oc1cc(-c2cnn(C3CCNCC3)c2)cnc1N)c1c(Cl)ccc(F)c1Cl [Crizotinib (hydrochloride)],Cholesterol-free,[1]; [21],0.1813
same,Complete,[1]; [22],0.2796
same,Difference,[1]; [23],0.10
same,Cholesterol-free media + simvastatin (0.04 μM),[2]; [12],0.4168
same,Complete Media,[2]; [13],0.4474
same,Difference,[2]; [14],0.03
C[C@@H](Oc1cc(-c2cnn(C3CCNCC3)c2)cnc1N)c1c(Cl)ccc(F)c1Cl [Crizotinib],Cholesterol-free,[1]; [21],0.1411
same,Complete,[1]; [22],0.3735
same,Difference,[1]; [23],0.23
same,Cholesterol-free media + simvastatin (0.04 μM),[2]; [12],0.4044
same,Complete Media,[2]; [13],0.5269
same,Difference,[2]; [14],0.12
CC(/C=C/C=C(\C)C(=O)O[C@@H]1O[C@H](CO[C@@H]2O[C@H](CO)[C@@H](O)[C@H](O)[C@H]2O)[C@@H](O)[C@H](O)[C@H]1O)=C\C=C\C=C(C)\C=C\C=C(/C)C(=O)O[C@@H]1O[C@H](CO[C@@H]2O[C@H](CO)[C@@H](O)[C@H](O)[C@H]2O)[C@@H](O)[C@H](O)[C@H]1O [Crocin],Difference,[1]; [7],−0.11
same,Cholesterol-free,[1]; [8],1.099
same,Complete,[1]; [9],0.9914
same,Cholesterol-free media + simvastatin (0.04 μM),[2]; [24],1.135
same,Complete Media,[2]; [25],0.9252
same,Difference,[2]; [11],−0.21
O=C(O)c1cc(=O)c2c(OCC(O)COc3cccc4oc(C(=O)O)cc(=O)c34)cccc2o1 [Cromolyn (sodium)],Difference,[1]; [15],−0.63
same,Cholesterol-free,[1]; [16],1.66
same,Complete,[1]; [17],1.032
same,Cholesterol-free media + simvastatin (0.04 μM),[2]; [12],0.821
same,Complete Media,[2]; [13],0.9131
same,Difference,[2]; [14],0.09
CC=CC(=O)N(CC)c1ccccc1C [Crotamiton],Difference,"[1]; Complete minus Cholesterol-free, […]",−0.17
same,Cholesterol-free,[1]; [8],1.084
same,Complete,[1]; [9],0.9155
same,Cholesterol-free media + simvastatin (0.04 μM),[2]; [24],1.259
same,Complete Media,[2]; [25],1.088
same,Difference,"[2]; complete media vs cholesterol-free media + simvastatin (0.04 μM), […]",−0.17
CC1CC(OC(=O)C(O)c2ccccc2)CC(C)(C)C1 (stereo not drawn) [Cyclandelate],Difference,[1]; [20],−0.23
same,Cholesterol-free,[1]; [3],1.162
same,Complete,"[1]; NCI-H292 cells, complete media",0.935
same,Cholesterol-free media + simvastatin (0.04 μM),[2]; [24],1.188
same,Complete Media,[2]; [25],0.9668
same,Difference,[2]; [11],−0.22
